# Results reported in article PMC2241863 (Nucleic Acids Research, 2007).
# Columns and labels:
# E. coli RPR = details: cited from earlier work
# bacterial RNase P = details: 'low-salt' buffer, cited from earlier work; for IC50: read-out: IC50 for inhibition of bacterial RNase P
# [1] = tested on: E. coli RNase P holoenzyme; details: cited from earlier work
# human RNase P = details: cited from earlier work
# [2] = tested on: E. coli RNase P holoenzyme; assay: E. coli RNase P holoenzyme ptRNATyr processing assay, 'high-salt' buffer; format: biochemical, Escherichia coli; details: 1 mM added to assay
Structure (SMILES),IC50 (bacterial RNase P) [µM],Effect on E. coli RNase P holoenzyme activity [2],also measured
"NC[C@@H]1O[C@H](O[C@H]2[C@@H](O)[C@H](O[C@@H]3[C@@H](O)[C@H](N)C[C@H](N)[C@H]3O[C@H]3O[C@H](CN)[C@@H](O)[C@H](O)[C@H]3N)O[C@@H]2CO)[C@H](N)[C@@H](O)[C@@H]1O [NeoB, neomycin B]",60,,Increase in IC50 with mutations in E. coli RPR L15 loop (E. coli RPR; L15 mutations that weaken Mg2+ binding): 3 fold; Increase in IC50 in 'high-salt' instead of 'low-salt' buffer [1]: 7 fold
N=C(N)NCCC[C@H](N)C(=O)NC[C@@H]1O[C@H](O[C@H]2[C@@H](O)[C@H](O[C@@H]3[C@@H](O)[C@H](NC(=O)[C@@H](N)CCCNC(=N)N)C[C@H](NC(=O)[C@@H](N)CCCNC(=N)N)[C@H]3O[C@H]3O[C@H](CNC(=O)[C@@H](N)CCCNC(=N)N)[C@@H](O)[C@H](O)[C@H]3NC(=O)[C@@H](N)CCCNC(=N)N)O[C@@H]2CO)[C@H](NC(=O)[C@@H](N)CCCNC(=N)N)[C@@H](O)[C@@H]1O [NeoR6],0.125,,Effectiveness against human RNase P compared with bacterial RNase P (human RNase P): not as effective; Potency of NeoR6 relative to NeoB in inhibiting bacterial RNase P (bacterial RNase P): 500 fold
"NC[C@@H]1O[C@H](O[C@H]2[C@@H](O)[C@H](O[C@@H]3[C@@H](O)[C@H](N)C[C@H](N)[C@H]3O[C@H]3O[C@H](CO)[C@@H](O)[C@H](O)[C@H]3N)O[C@@H]2CO)[C@H](N)[C@@H](O)[C@@H]1O [Par, paromomycin]",,,Fold weaker than NeoB in inhibiting bacterial RPR (E. coli RPR): 6 fold
N=C(N)NCCC[C@H](N)C(=O)O [arginine],,no effect,
N=C(N)N [guanidine],,no effect,
NCCCC[C@H](N)C(=O)O [lysine],,no effect,
